Row | melting point [°C] | SMILES
1 | 100 to 110 | Cc1cc(Nc2ccnc(Nc3ccc(C(=O)N(C)C4CCCN(CCCC(F)(F)F)C4)cc3)n2)ccc1F (centres unmarked) [Example 2, 4-[4-(4-Fluoro-3-methylphenylamino)pyrimidin-2-ylamino]-N-methyl-N-[1-(4,4,4-trifluorobutyl)piperidin-3-yl]benzamide]
2 | 125 to 130 | Cc1cc(Nc2ccnc(Nc3ccc(C(=O)N(C)C4CCCN(Cc5csnn5)C4)cc3)n2)ccc1F (centres unmarked) [Example 3, 4-[4-(4-Fluoro-3-methylphenylamino)pyrimidin-2-ylamino]-N-methyl-N-[1-(1,2,3-thiadiazol-4-ylmethyl)piperidin-3-yl]benzamide]
3 | 238 to 244 | CN1CCC(N(C)C(=O)c2ccc(Nc3nccc(Nc4ccc(C(F)(F)F)cc4)n3)cc2)CC1 [Example 4, N-Methyl-N-(1-methylpiperidin-4-yl)-4-[4-(4-(trifluoromethyl)phenylamino)pyrimidin-2-ylamino]benzamide]
4 | 254 to 256 | CN(C(=O)c1ccc(Nc2nccc(Nc3ccc(C(F)(F)F)cc3)n2)cc1)C1CCOCC1 [Example 5, N-Methyl-N-(tetrahydropyran-4-yl)-4-[4-(4-(trifluoromethyl)phenylamino)pyrimidin-2-ylamino]benzamide]
5 | 230 to 235 | CN(C(=O)c1ccc(Nc2nccc(Nc3ccc(F)cc3)n2)cc1)C1CCN2CCCC2C1 (centres unmarked) [Example 7]

From US20100035907A1, “NEW 2,4-DIANILINOPYRIMIDINES, PREPARATION THEREOF AS DRUGS, PHARMACEUTICAL COMPOSITIONS AND USE THEREOF ESSENTIALLY AS IKK INHIBITORS” (Sanofi-aventis, priority 2007, published 2010)
